Test results: article PMC12344696, “Elucidation of the Synergistic Interaction Between Bilirubin and Casein Protein: An Integrated Spectroscopy and Computational Approach” (Biomacromolecules, 2025)

Biological target: T1, casein (CAS) protein; CAS micelles
T1 construct: gene CSN1S1; whole casein mixture (alpha, beta, kappa), self-assembled micelles above CMC
Test: UV-vis absorption titration of BIL with casein, Hill1 fit
Details: phosphate buffer pH 7.3, 298 K; casein mixture 0.05-3 mg/mL across the CMC; converted from a mg/mL fit with average casein mass 22,500 Da; read-out: binding constant (converted)

Kd: 33.3 µM
Structure (SMILES): C=CC1=C(C)/C(=C/c2[nH]c(Cc3[nH]c(/C=C4\NC(=O)C(C)=C4C=C)c(C)c3CCC(=O)O)c(CCC(=O)O)c2C)NC1=O [BIL, bilirubin]
